Read-outs that look alike come from different tables or passages of the source.
How the values were obtained:
[1] = system: helicoidal strips of rabbit aorta; assay: In vitro vasodilating activity: inhibition of K+-induced contraction of aorta strips; type: cell-based, male albino rabbits (New Zealand strain); conditions: for Potency ratio, In vitro: Table III; for IC50: Oryctolagus cuniculus, read-out: ED50 (concentration causing a 50% inhibition of contraction); for times more active than the starting mononitrate: in vitro, II vs IS-5N, X vs IS-2N
Experimental: Aorta strips from male albino rabbits (New Zealand strain), prepared according to the method by Furchgott and Bhadrakom--J. Pharm. Exp. Ther. 108, 129 (1953), were contracted with a solution enriched in K^+ (100 mM). When the contraction was stable, the test compounds were added, according to the method of cumulative dosages.
The responses were isometrically recorded and expressed as contraction percentage inhibition. The concentration causing 50% inhibition (ED50) was calculated on the basis of the equation of the linear tract of the dose-response curves. The obtained results expressed as ED50 values are reported in tables I and II (which respectively relate to the compounds substituted at the 2-and and 5-positions), together with the values of the octanol/water partition coefficient. The potency ratio for each compound, in comparison with the starting mononitrate, IS-2-N and IS-5-N, is reported in the same tables.

[2] = Hypotensive activity in anesthetized rats (mean arterious pressure, i.v. bolus); type: in vivo, male albino rats (D strain, Charles River); conditions: for Potency ratio, In vivo: Table III; for ED20: iv, read-out: ED20, dose reducing by 20% the mean arterious pressure (graphically calculated)
Experimental: Male albino rats were used (D strain, Charles River) anesthetized with a starting dose of sodium pentobarbital of 60 mg/kg i.p. and thermoregulated at 37° C. Mean arterious pressure was monitored at right carotidis arteria, while the compounds were administered as a bolus into the jugular vein, at constant volumes of 0.3 and 1 ml/kg.
The results, expressed as ED20, dose causing a 20% reduction in the mean arterious pressure (graphically calculated) are expressed in table III, relating to compounds substituted at the 2- and 5-positions.

[3] = octanol/water partition coefficient; type: physicochemical; conditions: for logP: octanol/water, read-out: Partition coeff. (octanol/H2O) (converted)
[4] = Arterious pressure in the anesthetized rabbit, in vein administration; type: in vivo
Excerpt: The above results are confirmed also in another animal species.

[5] = Table I, in comparison with isosorbide 5-nitrate
[6] = Table I, 2-acyl derivatives of isosorbide 5-nitrate
[7] = Table I, 2-acyl derivatives of isosorbide 5-nitrate, K+ 100 mM
[8] = Table II, in comparison with isosorbide 2-nitrate
[9] = Table II, 5-acyl derivatives of isosorbide 2-nitrate
[10] = Table II, 5-acyl derivatives of isosorbide 2-nitrate, K+ 100 mM

Row | logP [3, 6] | logP [3, 9] | Structure (SMILES) | Potency ratios (confidence limits) [1, 5] | Potency ratio, In vitro ([1]; relative to IS-5-N) | Potency ratio, In vivo ([2]; relative to IS-5-N) | ED20 ([2]; anesthetized rat) | Potency ratios (confidence limits) [1, 8] | Potency ratio, In vitro ([1]; relative to IS-2-N) | Potency ratio, In vivo ([2]; relative to IS-2-N) | further results
1 | 2.96 |  | COc1ccc(C=CC(=O)O[C@H]2CO[C@H]3[C@@H]2OC[C@H]3O[N+](=O)[O-])cc1OC [IV, 1,4:3,6-dianhydrosorbitol 2-(3,4-dimethoxy)cinnamate 5-nitrate] | ~3 | 3 | ≈ 83 | 1.8 µmol/kg |  |  |  | 
2 | 2.44 |  | COc1cc(C=CC(=O)O[C@H]2CO[C@H]3[C@@H]2OC[C@H]3O[N+](=O)[O-])cc(OC)c1OC [VI, 1,4:3,6-dianhydrosorbitol 2-(3,4,5-trimethoxy)cinnamate 5-nitrate] | 7.08 (4.21-11.67) | 7 | ≈ 94 | 1.6 µmol/kg |  |  |  | 
3 | 1.35 |  | CCCCCCCCCCCCCCCC(=O)O[C@H]1CO[C@H]2[C@@H]1OC[C@H]2O[N+](=O)[O-] [III, 1,4:3,6-dianhydrosorbitol 5-nitrate 2-palmitate] |  |  |  |  |  |  |  | IC50 [1, 7]: > 10 µM
4 |  | 2.5 | COc1cc(C=CC(=O)O[C@@H]2CO[C@H]3[C@@H]2OC[C@@H]3O[N+](=O)[O-])cc(OC)c1OC [IX, 1,4:3,6-dianhydrosorbitol 5-(3,4,5-trimethoxy)cinnamate 2-nitrate] |  |  |  | 0.6 µmol/kg | ~3 | 6 | ≈ 20 | 
5 |  | 1.51 | CCCCCCCCCCCCCCCC(=O)O[C@@H]1CO[C@H]2[C@@H]1OC[C@@H]2O[N+](=O)[O-] [VIII, 1,4:3,6-dianhydrosorbitol 2-nitrate 5-palmitate] |  |  |  |  |  |  |  | 
6 |  | 1.58 | CCOC(=O)CCCCC(=O)O[C@@H]1CO[C@H]2[C@@H]1OC[C@@H]2O[N+](=O)[O-] [XIII, 1,4:3,6-dianhydrosorbitol 2-nitrate 5-(5-ethoxycarbonyl)-pentanoate] |  |  |  | 2.5 µmol/kg | 6.65 (4.81-9.10) | 6.6 | ≈ 4.8 | 
7 | 0.579 |  | CC(=O)O[C@H]1CO[C@H]2[C@@H]1OC[C@H]2O[N+](=O)[O-] [IS-2A-5N, isosorbide 2-acetate 5-nitrate, reference compound] | 8.21 (5.11-13.13) | 8 | ≈ 60 | 2.5 µmol/kg |  |  |  | IC50 [1, 7]: 33.9 µM
8 |  | 0.947 | CCC(=O)O[C@@H]1CO[C@H]2[C@@H]1OC[C@@H]2O[N+](=O)[O-] [IS-5P-2N, isosorbide 2-nitrate 5-propionate, reference compound] |  |  |  |  | 15.59 (10.74-22.44) | 15.6 |  | IC50 [1, 10]: 1.54 µM
9 |  | 2.2 | COc1ccc(C=CC(=O)O[C@@H]2CO[C@H]3[C@@H]2OC[C@@H]3O[N+](=O)[O-])cc1OC [VII, 1,4:3,6-dianhydrosorbitol 5-(3,4-dimethoxy)cinnamate 2-nitrate] |  |  |  | 0.3 µmol/kg | ~1 | 1 | ≈ 40 | 
10 |  | 2.08 | COc1cc(C(=O)O[C@@H]2CO[C@H]3[C@@H]2OC[C@@H]3O[N+](=O)[O-])cc(OC)c1OC [X, 1,4:3,6-dianhydrosorbitol 5-(3,4,5-trimethoxy)-benzoate 2-nitrate] |  |  |  | 0.4 µmol/kg | 1.58 (1.13-2.19) | 1 | ≈ 30 | IC50 [1, 10]: 13.8 µM; times more active than the starting mononitrate [1]: 1.58 times; times more lipophilic than the starting mononitrate [3]: 200 times
11 |  | 0.418 | CC(=O)O[C@@H]1CO[C@H]2[C@@H]1OC[C@@H]2O[N+](=O)[O-] [IS-5A-2N, isosorbide 5-acetate 2-nitrate, reference compound] |  |  |  | 2.2 µmol/kg | 6.55 (4.60-9.17) | 6.5 | ≈ 5.4 | IC50 [1, 10]: 3.97 µM

The next lines start with the molecule.

Row | Structure (SMILES) | logP [3, 6] | logP [3, 9] | Potency ratios (confidence limits) [1, 5] | Potency ratio, In vitro ([1]; relative to IS-5-N) | Potency ratio, In vivo ([2]; relative to IS-5-N) | ED20 ([2]; anesthetized rat) | Potency ratios (confidence limits) [1, 8] | Potency ratio, In vitro ([1]; relative to IS-2-N) | Potency ratio, In vivo ([2]; relative to IS-2-N) | further results
12 | O=[N+]([O-])O[C@H]1CO[C@H]2[C@@H]1OC[C@H]2O [IS-2-N, 1,4:3,6-dianhydrosorbitol 2-nitrate, reference compound] |  | -0.231 |  |  |  |  | 1.0 | 1 | ≈ 1 | IC50 [1]: 23.9 µM; ED20 ([2]; Rattus norvegicus): 12 µmol/kg
13 | CCC(=O)O[C@H]1CO[C@H]2[C@@H]1OC[C@H]2O[N+](=O)[O-] [IS-2P-5N, isosorbide 5-nitrate 2-propionate, reference compound] | 1.15 |  | 5.19 (3.53-7.52) | 5 | ≈ 65 | 2.3 µmol/kg |  |  |  | IC50 [1, 7]: 56.8 µM
14 | O=C(CCC(=O)O[C@H]1CO[C@H]2[C@@H]1OC[C@H]2O[N+](=O)[O-])O[C@H]1CO[C@H]2[C@@H]1OC[C@H]2O[N+](=O)[O-] [XII, bis-(1,4:3,6-dianhydrosorbitol 5-nitrate-2-il)succinate] | 1.81 |  | ~20 | 7 | ≈ 21 |  |  |  |  | ED20 ([2]; Rattus norvegicus): 7 µmol/kg
15 | CCOC(=O)CCCCC(=O)O[C@H]1CO[C@H]2[C@@H]1OC[C@H]2O[N+](=O)[O-] [XI, 1,4:3,6-dianhydrosorbitol 5-nitrate 2-(5-ethoxycarbonyl)pentanoate] | 1.48 |  | 6.91 (4.78-9.88) | 7 | ≈ 21 | 7 µmol/kg |  |  |  | IC50 [1, 7]: 46.4 µM
16 | O=C(C=Cc1ccccc1)O[C@H]1CO[C@H]2[C@@H]1OC[C@H]2O[N+](=O)[O-] [V, 1,4:3,6-dianhydrosorbitol 2-cinnamate 5-nitrate] |  |  | ~1 | 1 | ≈ 79 | 1.9 µmol/kg |  |  |  | Partition coeff. (octanol/H2O) [3]: very high
17 | O=[N+]([O-])O[C@@H]1CO[C@H]2[C@@H]1OC[C@@H]2O [IS-5-N, 1,4:3,6-dianhydrosorbitol 5-nitrate, reference compound] | -0.0501 |  | 1.0 | 1 | 1 |  |  |  |  | IC50 [1]: 253 µM; ED20 ([2]; Rattus norvegicus): 150 µmol/kg
18 | COc1cc(C(=O)O[C@H]2CO[C@H]3[C@@H]2OC[C@H]3O[N+](=O)[O-])cc(OC)c1OC [II, 1,4:3,6-dianhydrosorbitol 2-(3,4,5-trimethoxy)-benzoate 5-nitrate] | 2.09 |  | 113.48 (72.30-172.85) | 113 | ≈ 79 | 1.9 µmol/kg |  |  |  | IC50 [1, 7]: 2.72 µM; times more active than the starting mononitrate [1]: about 110 times; hypotensive activity in words ([2]; rat): remarkable hypotensive activity in both "in vitro" and "in vivo" tests; times more lipophilic than the starting mononitrate [3]: about 140 times; reduction in arterious pressure [4]: dose-depending reduction in arterious pressure; strength of arterious pressure reduction higher than that of IS-2N ([4]; vs IS-2N): about 10 times; strength of arterious pressure reduction higher than that of IS-5N ([4]; vs IS-5N): ~100 times
19 | O=C(O)CCC(=O)O[C@H]1CO[C@H]2[C@@H]1OC[C@H]2O[N+](=O)[O-] [XIV, 1,4:3,6-dianhydrosorbitol 5-nitrate 2-(3-carboxy)propionate] | 0.294 |  | 0.16 (0.10-0.25) | 0.2 | ≈ 0.5 |  |  |  |  | IC50 [1]: 2100 µM; ED20 ([2]; Rattus norvegicus): 300 µmol/kg
